Measurements published in ChEMBL document CHEMBL5380875, “Discovery of a Potent and Oral Available Complex I OXPHOS Inhibitor That Abrogates Tumor Growth and Circumvents MEKi Resistance” (J Med Chem, 2023).
pIC50: −log10 of the molar value. Activity calls are given as the source filed them. The calls are words filed in the database; no cut-off is given here.

Tests used:
[1] = Toxicity in mouse xenografted with human NCI-H460 cells with high-OXPHOS assessed as reduction in serum creatinine level at 30 mg/kg, po bid administered for 18 days; type: organism-based; conditions: in vivo, 432 h, time 18 day
[2] = Cytotoxicity against human HPNE cells assessed as reduction in cell viability incubated for 5 days by CellTiter 96 cell proliferation assay; type: toxicity, cell-based
NCI-H460 [3] = assay: Inhibition of colony formation in human NCI-H460 cells with high-OXPHOS harboring KRAS Q61H mutant incubated for 10 to 14 days in presence of trametinib by crystal violet staining based analysis; type: functional, cell-based; conditions: time 10-14 day
NCI-H460 [4] = assay: Antitumor activity against human NCI-H460 cells with high-OXPHOS xenografted in mouse assessed as tumor growth inhibition at 30 mg/kg, po bid administered for 18 days and measured every 3 days by electronic caliper analysis; type: functional, organism-based; conditions: time 18.0 day
Cytochrome P450 2D6 = Cytochrome P450 2D6 (Homo sapiens, UniProt P10635); assay: Inhibition of CYP2D6 in human liver microsomes; type: ADME, Microsome
[5] = Toxicity in mouse xenografted with human NCI-H460 cells with high-OXPHOS assessed as pathological changes in heart at 30 mg/kg, po bid administered for 18 days by H and E staining based analysis; type: organism-based; conditions: in vivo, 432 h, time 18 day
NCI-H441 [6] = assay: Antiproliferative activity against human NCI-H441 cells with high-OXPHOS assessed as reduction in cell viability incubated for 5 days by CellTiter 96 cell proliferation assay; type: functional, cell-based; conditions: NCI-H441, 120 h
[7] = AUC (0 to 24 hrs) in ICR mouse at 10 mg/kg, po measured for 24 hrs by LC-MS/MS analysis; type: ADME, organism-based; design: time 24 hrs, dose 10 mg/kg, route po; conditions: in vivo
NCI-H460 [8] = assay: Induction of apoptosis in human NCI-H460 cells with high-OXPHOS harboring KRAS Q61H mutant assessed as early apoptotic cells at 20 nM incubated for 72 hrs by Annexin V-FITC/propidium iodide staining based flow cytometry analysis (reference value: 1.95%); type: functional
[9] = AUC (0 to infinity) in ICR mouse at 1 mg/kg, iv measured for 24 hrs by LC-MS/MS analysis; type: ADME, organism-based; design: dose 1 mg/kg, time 24 hrs, route iv; conditions: in vivo
[10] = Cytotoxicity against human MRC5 cells assessed as reduction in cell viability incubated for 5 days by CellTiter 96 cell proliferation assay; type: toxicity, cell-based
[11] = Toxicity in mouse xenografted with human NCI-H460 cells with high-OXPHOS assessed as reduction in serum BUN level at 30 mg/kg, po bid administered for 18 days; type: organism-based; conditions: in vivo, 432 h, time 18 day
Cytochrome P450 2C9 = Cytochrome P450 2C9 (Homo sapiens, UniProt P11712); assay: Inhibition of CYP2C9 in human liver microsomes; type: ADME, Microsome
[12] = MRT (0 to 24 hrs) in ICR mouse at 10 mg/kg, po measured for 24 hrs by LC-MS/MS analysis; type: ADME, organism-based; conditions: in vivo
A549 [13] = assay: Induction of apoptosis in human Trametinib-resistant A549 cells with high-OXPHOS harboring KRAS G12S mutant assessed as early apoptotic cells at 20 nM incubated for 72 hrs in presence of trametinib by Annexin V-FITC/propidium iodide staining based flow cytometry analysis (reference value: 4.31%); type: functional
[14] = Half life in ICR mouse at 1 mg/kg, iv measured for 24 hrs by LC-MS/MS analysis; type: ADME, organism-based; conditions: in vivo
A549 [15] = assay: Inhibition of mitochondrial respiration in human Trametinib-resistant A549 cell assessed as reduction in spare oxygen consumption rate capacity at 50 to 200 nM incubated for 12 hrs by seahorse XF96 flux analyzer; type: functional, cell-based; conditions: dose 50-200 nM
NCI-H441 [16] = assay: Induction of apoptosis in human NCI-H441 cells with high-OXPHOS assessed as early apoptotic cells at 30 nM incubated for 48 hrs by Annexin V-FITC/propidium iodide staining based flow cytometry analysis (reference value: 1.67%); type: functional
[17] = Apparent volume of distribution in ICR mouse at 1 mg/kg, iv measured for 24 hrs by LC-MS/MS analysis; type: ADME, organism-based; conditions: in vivo, read-out: Vz
Cytochrome P450 2C19 = Cytochrome P450 2C19 (Homo sapiens, UniProt P33261); assay: Inhibition of CYP2C19 in human liver microsomes; type: ADME, Microsome
NCI-H460 [18] = assay: Inhibition of mitochondrial respiration in human NCI-H460 cells with high-OXPHOS assessed as reduction in maximal oxygen consumption rate incubated for 12 hrs by seahorse XF96 flux analyzer; type: functional, cell-based; conditions: dose 50-200 nM
NCI-H441 [19] = assay: Inhibition of mitochondrial respiration in human NCI-H441 cells with high-OXPHOS assessed as reduction in basal oxygen consumption rate incubated for 12 hrs by seahorse XF96 flux analyzer; type: functional, cell-based; conditions: dose 50-200 nM
NCI-H460 [20] = assay: Antiproliferative activity against human NCI-H460 cells with high-OXPHOS assessed as reduction in cell viability incubated for 5 days by CellTiter 96 cell proliferation assay; type: functional, cell-based; conditions: NCI-H460, 120 h
A549 [21] = assay: Induction of apoptosis in human Trametinib-resistant A549 cells with high-OXPHOS harboring KRAS G12S mutant assessed as late apoptotic cells at 20 nM incubated for 72 hrs by Annexin V-FITC/propidium iodide staining based flow cytometry analysis (reference value: 4.27%); type: functional
A549 [22] = assay: Induction of apoptosis in human Trametinib-resistant A549 cells with high-OXPHOS harboring KRAS G12S mutant assessed as late apoptotic cells at 20 nM incubated for 72 hrs in presence of trametinib by Annexin V-FITC/propidium iodide staining based flow cytometry analysis (reference value: 4.31%); type: functional
NCI-H460 [23] = assay: Induction of apoptosis in human NCI-H460 cells with high-OXPHOS assessed as late apoptotic cells at 30 nM incubated for 48 hrs by Annexin V-FITC/propidium iodide staining based flow cytometry analysis (reference value: 12.8%); type: functional
NCI-H460 [24] = assay: Potentiation of trametinib-induced cytotoxicity against human NCI-H460 cells with high-OXPHOS harboring KRAS Q61H mutant assessed as reduction in cell viability at 10 to 20 uM incubated for 72 hrs by CellTiter 96 cell proliferation assay; type: functional, cell-based; conditions: dose 10-20 µM
[25] = Tmax in ICR mouse at 1 mg/kg, iv measured for 24 hrs by LC-MS/MS analysis; type: ADME, organism-based; conditions: in vivo
NCI-H460 [26] = assay: Induction of apoptosis in human NCI-H460 cells with high-OXPHOS harboring KRAS Q61H mutant assessed as early apoptotic cells at 20 nM incubated for 72 hrs in presence of trametinib by Annexin V-FITC/propidium iodide staining based flow cytometry analysis (reference value: 1.95%); type: functional
NCI-H460 [27] = assay: Antitumor activity against human NCI-H460 cells with high-OXPHOS xenografted in mouse assessed as reduction in Ki67 expression at 30 mg/kg, po bid administered for 18 days in presence of trametinib by immunohistochemical analysis; type: functional, organism-based; conditions: time 18.0 day
A549 [28] = assay: Inhibition of mitochondrial respiration in human Trametinib-resistant A549 cell assessed as reduction in maximal oxygen consumption rate at 50 to 200 nM incubated for 12 hrs by seahorse XF96 flux analyzer; type: functional, cell-based; conditions: dose 50-200 nM
NCI-H460 [29] = assay: Inhibition of mitochondrial complex I NADH-ubiquinone oxidoreductase in human NCI-H460 cells at 1 uM incubated for 12 hrs by seahorse XF96 metabolic flux analyzer relative to control; type: cell-based
NCI-H460 [30] = assay: Potentiation of trametinib-induced antitumor activity against human NCI-H460 cells with high-OXPHOS xenografted in mouse assessed as reduction in tumor weight at 30 mg/kg, po bid administered for 18 days and measured every 3 days by electronic caliper analysis; type: functional, organism-based; conditions: time 18.0 day

Sequence of Cytochrome P450 2D6 (P10635 whole entry): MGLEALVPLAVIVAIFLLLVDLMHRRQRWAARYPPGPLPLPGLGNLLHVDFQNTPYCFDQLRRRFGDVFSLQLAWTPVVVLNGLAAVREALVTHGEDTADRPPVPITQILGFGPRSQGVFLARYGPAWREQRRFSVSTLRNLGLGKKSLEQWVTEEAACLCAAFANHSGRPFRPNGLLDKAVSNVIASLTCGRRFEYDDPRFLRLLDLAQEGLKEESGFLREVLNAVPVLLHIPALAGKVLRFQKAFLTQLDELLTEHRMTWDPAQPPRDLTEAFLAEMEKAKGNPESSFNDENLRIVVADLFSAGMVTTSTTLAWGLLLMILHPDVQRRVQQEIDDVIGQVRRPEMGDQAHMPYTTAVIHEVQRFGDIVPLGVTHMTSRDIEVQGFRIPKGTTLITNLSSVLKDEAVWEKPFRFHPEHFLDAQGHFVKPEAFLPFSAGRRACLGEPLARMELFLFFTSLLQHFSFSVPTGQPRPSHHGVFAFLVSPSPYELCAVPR
Sequence of Cytochrome P450 2C9 (P11712 whole entry): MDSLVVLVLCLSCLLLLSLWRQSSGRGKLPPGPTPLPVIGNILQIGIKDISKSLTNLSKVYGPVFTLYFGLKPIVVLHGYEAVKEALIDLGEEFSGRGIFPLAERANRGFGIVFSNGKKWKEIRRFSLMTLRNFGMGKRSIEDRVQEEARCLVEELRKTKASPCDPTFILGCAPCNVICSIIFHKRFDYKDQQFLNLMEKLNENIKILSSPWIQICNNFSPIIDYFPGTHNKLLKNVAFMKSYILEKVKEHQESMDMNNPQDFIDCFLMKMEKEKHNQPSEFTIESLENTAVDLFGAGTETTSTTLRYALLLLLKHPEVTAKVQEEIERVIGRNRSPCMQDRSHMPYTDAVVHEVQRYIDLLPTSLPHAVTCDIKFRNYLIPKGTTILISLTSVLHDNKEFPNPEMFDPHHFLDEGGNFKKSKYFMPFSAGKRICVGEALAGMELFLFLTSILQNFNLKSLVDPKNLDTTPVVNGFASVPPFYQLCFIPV
Sequence of Cytochrome P450 2C19 (P33261 whole entry): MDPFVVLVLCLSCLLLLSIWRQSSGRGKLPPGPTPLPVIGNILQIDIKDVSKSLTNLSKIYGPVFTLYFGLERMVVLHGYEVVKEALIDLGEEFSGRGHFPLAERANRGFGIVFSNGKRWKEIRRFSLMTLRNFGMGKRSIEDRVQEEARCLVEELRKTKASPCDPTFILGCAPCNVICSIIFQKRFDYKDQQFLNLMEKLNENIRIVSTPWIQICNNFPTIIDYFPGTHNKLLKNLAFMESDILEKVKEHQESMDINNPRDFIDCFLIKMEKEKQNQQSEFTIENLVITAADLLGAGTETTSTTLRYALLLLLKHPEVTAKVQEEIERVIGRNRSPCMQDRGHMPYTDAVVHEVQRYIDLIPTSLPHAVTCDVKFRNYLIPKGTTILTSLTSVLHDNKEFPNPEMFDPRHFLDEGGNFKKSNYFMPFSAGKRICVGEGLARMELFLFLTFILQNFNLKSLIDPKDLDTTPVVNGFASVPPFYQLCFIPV

In the case of `Cc1c(C(=O)N2CCN(Cc3ccc(OCC(F)(F)F)cc3)CC2)nnn1Cc1ccc(C(=O)Nc2ccc(C(F)(F)F)cc2)nc1`, the Activity [1] was “Non-Toxic”, the IC50 at 5 days [2] was greater than 10 µM and the inhibition (NCI-H460 [3]) was “Active”. For the same compound, the inhibition (NCI-H460 [4]) was “Active”, the pIC50 (Cytochrome P450 2D6) was less than 4.30 and the Activity [5] was “Non-Toxic”. For the same compound, the pIC50 (NCI-H441 [6]) was 7.53, the AUC(0-t) at 24 h [7] was 2170 ng·h/mL and the Activity (NCI-H460 [8]) was 2.87%. For the same compound, the AUC(0-inf) [9] was 359 ng·h/mL, the IC50 at 5 days [10] was greater than 10 µM and the Activity [11] was “Non-Toxic”. It also gave a pIC50 (Cytochrome P450 2C9) of 4.84, an MRT last at 24 h [12] of 3 h and an Activity (A549 [13]) of 31%. For the same compound, the half-life [14] was 2.3 h, the inhibition (A549 [15]) was “Active” and the Activity (NCI-H441 [16]) was 7.88%. For the same compound, the Vd [17] was 9.34 L/kg, the pIC50 (Cytochrome P450 2C19) was less than 4.30 and the inhibition (NCI-H460 [18]) was “Dose-Dependent Effect”. For the same compound, the inhibition (NCI-H441 [19]) was “Dose-Dependent Effect”, the pIC50 (NCI-H460 [20]) was 8.30 and the Activity (A549 [21]) was 7.45%. The Activity (A549 [22]) was 43.4%, the Activity (NCI-H460 [23]) was 37.8% and the Activity (NCI-H460 [24]) was “Active”. The Tmax [25] was 4.8 min, the Activity (NCI-H460 [26]) was 26.2% and the Activity (NCI-H460 [27]) was “Active”. For the same compound, the inhibition (A549 [28]) was “Active”, the inhibition (NCI-H460 [29]) was 77.6% and the Activity (NCI-H460 [30]) was “Active”.
